Experimental data: ChEMBL document CHEMBL4393720, “Design, synthesis and biological evaluation of bromophenol-thiazolylhydrazone hybrids inhibiting the interaction of translation initiation factors eIF4E/eIF4G as multifunctional agents for cancer treatment” (Eur J Med Chem, 2019)

How the values were obtained:
HepG2 = test: Antiproliferative activity against human HepG2 cells assessed as inhibition of cell growth incubated for 48 hrs by MTT assay; assay type: functional, cell-based; settings: HepG2, 48 h
U-87 MG = test: Antiproliferative activity against human U87MG cells assessed as inhibition of cell growth incubated for 48 hrs by MTT assay; assay type: functional, cell-based, U-87MG ATCC
HUVEC = test: Antiproliferative activity against human HUVEC cells assessed as inhibition of cell growth incubated for 48 hrs by MTT assay; assay type: cell-based
A549 = test: Antiproliferative activity against human A549 cells assessed as inhibition of cell growth incubated for 48 hrs by MTT assay; assay type: functional, cell-based; settings: A549, 48 h
Caco-2 = test: Antiproliferative activity against human Caco2 cells assessed as inhibition of cell growth incubated for 48 hrs by MTT assay; assay type: functional, cell-based; settings: Caco-2, 48 h

Row | Structure (SMILES) | IC50 (HepG2) [µM] | IC50 (U-87 MG) [µM] | IC50 (HUVEC) [µM] | IC50 (A549) [µM] | IC50 (Caco-2) [µM]
1 | COc1cc(/C=N/Nc2nc(-c3cccc(Br)c3)cs2)c(Br)c(Br)c1OC | > 100 | 27.6 | > 100 | 37 | > 100
2 | COc1ccccc1-c1csc(N/N=C/c2ccc(F)c(F)c2)n1 | > 100 | 40.6 | > 100 | 61.3 | 25.2
3 | COc1cc(/C=N/Nc2nc(-c3ccc(C(F)(F)F)cc3)cs2)cc(Br)c1OC | 31.2 | 41 | > 100 | 18.3 | 65.9
4 | Fc1ccc(/C=N/Nc2nc(-c3cccc(Br)c3)cs2)cc1F | 16.7 | 39.9 | > 100 | 16.2 | 17.5
5 | COc1cc(/C=N/Nc2nc(-c3ccc(C(F)(F)F)cc3)cs2)c(Br)c(Br)c1OC | > 100 | > 100 | > 100 | 17.6 | > 100
6 | O=C(O)/C(Cc1ccccc1[N+](=O)[O-])=N\Nc1nc(-c2ccc(Cl)c(Cl)c2)cs1 | 36.9 | 75 | 67.5 | 58.6 | 44.7
7 | COc1cc(/C=N/Nc2nc(-c3ccc(F)c(F)c3)cs2)c(Br)c(Br)c1OC | 49.7 | 19.6 | 54.7 | 8.38 | 22.8
8 | Fc1ccc(/C=N/Nc2nc(-c3ccc(F)c(F)c3)cs2)cc1F | 26.6 | 43.9 | 59.7 | 8.49 | 14.2
9 | COc1cc(/C=N/Nc2nc(-c3ccc(Br)cc3)cs2)c(Br)c(Br)c1OC | > 100 | > 100 | > 100 | 46.1 | > 100
10 | COc1cc(/C=N/Nc2nc(-c3ccc(Br)cc3)cs2)cc(Br)c1OC | 64.6 | 27.9 | > 100 | 52.3 | 36.2
11 | Fc1ccc(/C=N/Nc2nc(-c3ccccc3)cs2)cc1F | > 100 | > 100 | > 100 | 91.4 | 20.9
12 | COc1cc(/C=N/Nc2nc(-c3cc(C(F)(F)F)cc(C(F)(F)F)c3)cs2)cc(Br)c1OC | > 100 | > 100 | > 100 | 94.2 | > 100
13 | COc1cc(/C=N/Nc2nc(-c3ccccc3)cs2)cc(Br)c1OC | 68.3 | 74.1 | > 100 | 40 | 64.2
14 | COc1cc(/C=N/Nc2nc(-c3cccc(Br)c3)cs2)cc(Br)c1OC | 66.2 | 86.3 | > 100 | 56 | 43.4
15 | COc1cc(/C=N/Nc2nc(-c3cc(C(F)(F)F)cc(C(F)(F)F)c3)cs2)c(Br)c(Br)c1OC | > 100 | > 100 | > 100 | > 100 | > 100
16 | COc1cc(/C=N/Nc2nc(-c3ccc(F)c(F)c3)cs2)cc(Br)c1OC | 22.4 | 26.3 | > 100 | 21.1 | 21.2
17 | Fc1ccc(/C=N/Nc2nc(-c3ccc(Br)cc3)cs2)cc1F | > 100 | > 100 | > 100 | > 100 | 43.9
18 | COc1ccccc1-c1csc(N/N=C/c2cc(OC)c(OC)c(Br)c2Br)n1 | > 100 | > 100 | > 100 | 85.1 | > 100
19 | COc1ccccc1-c1csc(N/N=C/c2cc(Br)c(OC)c(OC)c2)n1 | 82.1 | > 100 | > 100 | 94.9 | > 100
20 | Fc1ccc(/C=N/Nc2nc(-c3cc(C(F)(F)F)cc(C(F)(F)F)c3)cs2)cc1F | 16.7 | 29.7 | > 100 | 6.23 | 62.8
21 | COc1cc(/C=N/Nc2nc(-c3ccccc3)cs2)c(Br)c(Br)c1OC | 33.6 | 20.1 | > 100 | 15.3 | 26.5
